# Laboratory results taken from patent US20030032774A1, “Novel opioid peptides for the treatment of pain” (priority 1994, published 2003).
# Where two headings read alike, the source gives them in different places. Square brackets hold non-standard residues; d marks the D form. Peptide text beside a SMILES is read from it. * marks the point of attachment. Phe(4-NO2) = N[C@@H](Cc1ccc([N+](=O)[O-])cc1)C(=O)O; Phe(4-N3) = [N-]=[N+]=Nc1ccc(C[C@H](N)C(=O)O)cc1; 1Nal = N[C@@H](Cc1cccc2ccccc12)C(=O)O; 2Nal = N[C@@H](Cc1ccc2ccccc2c1)C(=O)O; NMeF = CN[C@@H](Cc1ccccc1)C(=O)O; Tic = O=C(O)[C@@H]1Cc2ccccc2CN1; dNle = CCCC[C@@H](N)C(=O)O; dAbu = CC[C@@H](N)C(=O)O; Ac5c = NC1(C(=O)O)CCCC1; Aib = CC(C)(N)C(=O)O; Bn = c1ccc(C*)cc1
# Columns and labels:
# [1] = system: PBQ induced writhing in mice; assay: PBQ (phenylquinone)-induced writhing assay; assay type: in vivo, mouse; details: mouse s.c.
# Experimental: The test was performed on CD #1 male mice weighing between 18 and 22 g. Mice were weighed, marked and then injected, by the intraperitoneal route, with 0.3 ml/20 g by weight of a solution of phenylquinone at 0.02%. The contortions which appeared during a 15 minute time period following the injection were counted. The phenylquinone was injected at time intervals of 5, 20 or 60 minutes after administration of the compound (or medium, or standard) by subcutaneous route. It was injected at time intervals of 60 minutes after the administration of the compound (or medium, or standard) by oral route;
# The 0.02% phenylquinone solution was prepared as follows: 20 mg of phenylquinone was dissolved in 5 ml ethanol 90% (Sigma). The dissolved phenylquinone was slowly added to 95 ml of distilled water continuously shaken and preheated (not boiled). The phenylquinone solution was, at all times protected from light and a new solution was prepared every day for the test. Each group usually contained 10 mice. If an antagonist, such as naloxone, was used, it was administered 20 minutes before the compound (or the medium, or the standard) by the intraperitoneal route.
# Writhing assays were performed on CD#1 male mice weighing between […]. Assays were carried out as described in Example 3 and results are summarized below in Table 2.
# μ receptor = target: T1, μ receptor (Rattus norvegicus, UniProt P33535); assay: Radioligand binding assay, μ opioid receptor ((3H)-DAMGO, brain membranes)
# T1 construct: the brains (minus the cerebellum) were removed, placed in ice-cold saline solution, and then homogenized; from tissue; host or cells: rat brain (minus cerebellum) membranes
# Experimental: PBQ (phenyl-ρ-benzoquinone) induced writhing in mice is an assessment of both central and peripheral analgesia (see Sigmund, et al., Proc. Soc. Exp. Biol. Med. 95:729 (1957)). Central analgesia is determined by the inhibition of a hot-plate response in mice (see, Wolfe, et al., J. Pharmacol. Exp. Ther. 80:300 (1944)). Assays measuring opioid receptor binding affinities for μ and δ receptors as well as the GPI assay were determined through experimental protocol set out in Schiller et al. (Biophys. Res. Commun. 85:1322 (1975)). The references by Sigmund, et al., Wolfe, et al., and Schiller, et al. are each hereby incorporated by reference.
# Male Sprague-Dawley rats weighing between 350-450 g were sacrificed by inhalation of CO2. The rats were decapitated and the brains (minus the cerebellum) were removed, placed in ice-cold saline solution, and then homogenized in ice-cold 50 mM Tris buffer pH 7.4 (10 ml/brain). Membranes were centrifuged at 14000 rpm for 30 min. at 4° C. The pellets were re-suspended in approximately 6 ml/brain of ice-cold Tris buffer 50 mM pH 7.4 and stored at −78° C. until ready for use. Protein quantification of the brain homogenate was conducted according to protein assay kit purchased (Bio-Rad).
# (^3H)-DAMGO and (^3H)-DAGLE were used as radioligands for the μ and δ receptors, respectively. Radioligand 50 μl, membranes 100 μl, and serially diluted test compound were incubated for 1 hr at 22° C. Nonspecific binding was determined using a 500 fold excess of unlabeled ligand in the presence of tracer and membranes. Free ligand was separated from bound by filtration through Whatman GF/B paper (presoaked in polyethylenimine 1% aqueous solution) and rinsing with ice-cold 50 mM Tris pH 7.4 using a Brandel cell harvester. The filters were dried and radioactivity was counted in a 24 well microplate in the presence of 500 μl scintillant per well. Radioactivity was measured using a Wallace 1450 Microbeta counter. Ki's for the various compounds were determined from the IC50 according to the Cheng and Prusoff equation.
# μ receptors = μ receptors (Cavia porcellus, UniProt P97266); assay: Guinea Pig Ileum (GPI) assay, longitudinal muscle preparation
# Experimental: The activity of the peptide compounds on μ receptors was determined using the Guinea Pig Ileum (GPI) assay (longitudinal muscle preparation) according to the procedures described in Schiller et al., Biophys. Res. Commun. 85:1322 (1975).
# Chain of μ receptors (P97266 whole entry, looked up): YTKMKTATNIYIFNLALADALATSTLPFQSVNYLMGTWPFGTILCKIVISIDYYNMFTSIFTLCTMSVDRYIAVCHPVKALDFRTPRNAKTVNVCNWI
# T1 sequence (P33535 whole entry): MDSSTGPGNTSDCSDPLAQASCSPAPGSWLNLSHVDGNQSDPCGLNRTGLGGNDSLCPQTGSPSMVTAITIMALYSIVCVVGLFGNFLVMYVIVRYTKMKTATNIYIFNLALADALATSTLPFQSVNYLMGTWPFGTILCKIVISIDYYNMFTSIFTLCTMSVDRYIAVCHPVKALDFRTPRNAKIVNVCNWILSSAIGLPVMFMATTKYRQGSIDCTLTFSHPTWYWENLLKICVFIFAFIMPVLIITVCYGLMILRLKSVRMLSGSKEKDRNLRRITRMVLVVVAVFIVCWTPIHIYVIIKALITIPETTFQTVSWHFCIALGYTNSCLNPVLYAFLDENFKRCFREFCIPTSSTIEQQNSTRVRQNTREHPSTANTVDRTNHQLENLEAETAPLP
Compound,ED50(PBQ) ([1]; 20 min post administration) [mg/kg],"Ki (μ receptor; Ki^μ, Table 1) [nM]",other results
"CC(C)(NC(=O)[C@@H](N)Cc1ccc(O)cc1)C(=O)N[C@@H](Cc1ccccc1)C(=O)N[C@@H](Cc1ccccc1)C(N)=O [BCH754, H-Tyr-Aib-Phe-Phe-NH2] (H-Y[Aib]FF-NH2)",>20,,
"CCCC[C@@H](NC(=O)[C@@H](N)Cc1ccc(O)cc1)C(=O)N[C@@H](Cc1c[nH]c2ccccc12)C(=O)N[C@@H](Cc1c[nH]c2ccccc12)C(N)=O [BCH2217, H-Tyr-D-Nle-Trp-Trp-NH2] (H-Y[dNle]WW-NH2)",>5,,
"CCCC[C@@H](NC(=O)[C@@H](N)Cc1ccc(O)cc1)C(=O)N[C@@H](Cc1c[nH]c2ccccc12)C(=O)N[C@@H](Cc1ccccc1)C(N)=O [BCH2212, H-Tyr-D-Nle-Trp-Phe-NH2] (H-Y[dNle]WF-NH2)",>10,,
"C[C@@H](NC(=O)[C@@H](N)Cc1ccc(O)cc1)C(=O)N[C@@H](Cc1c[nH]c2ccccc12)C(=O)N[C@@H](Cc1c[nH]c2ccccc12)C(N)=O [BCH1786, H-Tyr-D-Ala-Trp-Trp-NH2] (H-Y[dA]WW-NH2)",10,0.833,
"C[C@@H](NC(=O)[C@@H](N)Cc1ccc(O)cc1)C(=O)N[C@@H](Cc1ccccc1)C(=O)N[C@@H](Cc1ccc([N+](=O)[O-])cc1)C(N)=O [BCH1776, H-Tyr-D-Ala-Phe-Phe(4-NO2)—NH2] (H-Y[dA]F[Phe(4-NO2)]-NH2)",4,0.509,"IC50 (μ receptors; GPI(IC50), Table 1): 8 nM"
"C[C@@H](NC(=O)[C@@H](N)Cc1ccc(O)cc1)C(=O)N[C@H](Cc1ccccc1)C(=O)N[C@@H](Cc1ccccc1)C(N)=O [BCH1775, H-Tyr-D-Ala-D-Phe-Phe-NH2] (H-Y[dA][dF]F-NH2)",,,IC50 (μ receptors): 925 nM; Ki (μ receptor): 26 nM
"C[C@@H](NC(=O)[C@@H](N)Cc1ccc(O)cc1)C(=O)N[C@@H](Cc1cccc2ccccc12)C(=O)N[C@@H](Cc1cccc2ccccc12)C(N)=O [BCH1783, H-Tyr-D-Ala-1′-Nal-1′-Nal-NH2] (H-Y[dA][1Nal][1Nal]-NH2)",>20,2.88,
"C[C@@H](NC(=O)[C@@H](N)Cc1ccc(O)cc1)C(=O)N[C@@H](Cc1ccccc1)C(=O)N[C@@H](Cc1cccc2ccccc12)C(N)=O [BCH1782, H-Tyr-D-Ala-Phe-1′-Nal-NH2] (H-Y[dA]F[1Nal]-NH2)",>20,0.981,"IC50 (μ receptors; GPI(IC50), Table 1): 2 nM"
"C[C@@H](NC(=O)[C@@H](N)Cc1ccc(O)cc1)C(=O)N[C@@H](Cc1ccccc1)C(=O)N1Cc2ccccc2C[C@H]1C(N)=O [BCH1780, H-Tyr-D-Ala-Phe-Tic-NH2] (H-Y[dA]F[Tic]-NH2)",,12.7,
"CCCC[C@@H](NC(=O)[C@@H](N)Cc1ccc(O)cc1)C(=O)N[C@@H](Cc1ccccc1)C(=O)N[C@@H](Cc1ccccc1)C(N)=O [BCH755, H-Tyr-D-Nle-Phe-Phe-NH2] (H-Y[dNle]FF-NH2)",,0.968,"IC50 (μ receptors; GPI(IC50), Table 1): 15 nM; ED50(PBQ) ([1]; 5 min.): 2.5 (5 min.) mg/kg"
"C[C@@H](NC(=O)[C@@H](N)Cc1ccc(O)cc1)C(=O)N[C@@H](Cc1ccccc1)C(=O)N(C)[C@@H](Cc1ccccc1)C(N)=O [BCH1781, H-Tyr-D-Ala-Phe-Phe(NMe)-NH2] (H-Y[dA]F[NMeF]-NH2)",,22.6,"IC50 (μ receptors; GPI(IC50), Table 1): 241 nM"
"CCCC[C@@H](NC(=O)[C@@H](N)Cc1ccc(O)cc1)C(=O)N[C@@H](Cc1ccccc1)C(=O)N[C@@H](Cc1ccc2ccccc2c1)C(N)=O [BCH2211, H-Tyr-D-Nle-Phe-2′-Nal-NH2] (H-Y[dNle]F[2Nal]-NH2)",>10,,
"C[C@@H](NC(=O)[C@@H](N)Cc1ccc(O)cc1)C(=O)N[C@@H](Cc1ccc2ccccc2c1)C(=O)N[C@@H](Cc1cccc2ccccc12)C(N)=O [BCH758, H-Tyr-D-Ala-2′-Nal-1′-Nal-NH2] (H-Y[dA][2Nal][1Nal]-NH2)",>20,5.61,
"CC(C)C[C@@H](NC(=O)[C@@H](N)Cc1ccc(O)cc1)C(=O)N[C@@H](Cc1ccccc1)C(=O)N[C@@H](Cc1ccccc1)C(N)=O [BCH2465, H-Tyr-D-Leu-Phe-Phe-NH2] (H-Y[dL]FF-NH2)",>10,,
"CCCC[C@@H](NC(=O)[C@@H](N)Cc1ccc(O)cc1)C(=O)N[C@@H](Cc1ccccc1)C(=O)N[C@@H](Cc1c[nH]c2ccccc12)C(N)=O [BCH2208, H-Tyr-D-Nle-Phe-Trp-NH2] (H-Y[dNle]FW-NH2)",>3,,
"CC[C@@H](C)[C@@H](NC(=O)[C@@H](N)Cc1ccc(O)cc1)C(=O)N[C@@H](Cc1ccccc1)C(=O)N[C@@H](Cc1ccccc1)C(N)=O [BCH2473, H-Tyr-D-Ile-Phe-Phe-NH2] (H-Y[dI]FF-NH2)",>10,,
"CC(C)[C@@H](NC(=O)[C@@H](N)Cc1ccc(O)cc1)C(=O)N[C@@H](Cc1ccccc1)C(=O)N[C@@H](Cc1ccccc1)C(N)=O [BCH2464, H-Tyr-D-Val-Phe-Phe-NH2] (H-Y[dV]FF-NH2)",>10,,
H-Tyr-∇Ala-Phe-Phe-NH2 [BCH1787],10,,
"C[C@@H](NC(=O)[C@@H](N)Cc1ccc(O)cc1)C(=O)N[C@@H](Cc1ccccc1)C(=O)N[C@@H](CSCc1ccccc1)C(N)=O [BCH3240, H-Tyr-D-Ala-Phe-Cys(Bzl)NH2] (H-Y[dA]FC(Bn)-NH2)",,5.3,"IC50 (μ receptors; GPI(IC50), Table 1): 9.16 nM"
∇CH2Tyr-D-Ala-Phe-Phe-NH2 [BCH2202],>10,,
"NC(=O)[C@H](Cc1ccccc1)NC(=O)[C@H](Cc1ccccc1)NC(=O)C1(NC(=O)[C@@H](N)Cc2ccc(O)cc2)CCCC1 [BCH2579, H-Tyr-Cle-Phe-Phe-NH2] (H-Y[Ac5c]FF-NH2)",>10,,
"C[C@@H](NC(=O)[C@@H](N)Cc1ccc(O)cc1)C(=O)N[C@@H](Cc1c[nH]c2ccccc12)C(=O)N[C@@H](Cc1ccc2ccccc2c1)C(N)=O [BCH2213, H-Tyr-D-Ala-Trp-2′-Nal-NH2] (H-Y[dA]W[2Nal]-NH2)",>5,,
"CC[C@@H](NC(=O)[C@@H](N)Cc1ccc(O)cc1)C(=O)N[C@@H](Cc1ccccc1)C(=O)N[C@@H](Cc1ccccc1)C(N)=O [BCH2577, H-Tyr-D-Abu-Phe-Phe-NH2] (H-Y[dAbu]FF-NH2)",>10,,
"C[C@@H](NC(=O)[C@@H](N)Cc1ccc(O)cc1)C(=O)N[C@@H](Cc1ccc([N+](=O)[O-])cc1)C(=O)N[C@@H](Cc1ccccc1)C(N)=O [BCH1779, H-Tyr-D-Ala-Phe(4-NO2)-Phe-NH2] (H-Y[dA][Phe(4-NO2)]F-NH2)",,56.8,"IC50 (μ receptors; GPI(IC50), Table 1): 77 nM"
"N=C(N)NCCC[C@@H](NC(=O)[C@@H](N)Cc1ccc(O)cc1)C(=O)N[C@@H](Cc1ccccc1)C(=O)N[C@@H](CSCc1ccccc1)C(N)=O [BCH3241, H-Tyr-D-Arg-Phe-Cys(Bzl)NH2] (H-Y[dR]FC(Bn)-NH2)",,6.95,"IC50 (μ receptors; GPI(IC50), Table 1): 33 nM"
"C[C@H](O)[C@@H](NC(=O)[C@@H](N)Cc1ccc(O)cc1)C(=O)N[C@@H](Cc1ccccc1)C(=O)N[C@@H](Cc1ccccc1)C(N)=O [BCH2811, H-Tyr-D-Thr-Phe-Phe-NH2] (H-Y[dT]FF-NH2)",12,,
"CCCC[C@@H](NC(=O)[C@@H](N)Cc1ccc(O)cc1)C(=O)N[C@@H](Cc1c[nH]c2ccccc12)C(=O)N[C@@H](Cc1ccc2ccccc2c1)C(N)=O [BCH2214, H-Tyr-D-Nle-Trp-2′-Nal-NH2] (H-Y[dNle]W[2Nal]-NH2)",15,,
H-Tyr-Chl-Phe-Phe-NH2 [BCH2578],>10,,
"C[C@@H](NC(=O)[C@@H](N)Cc1ccc(O)cc1)C(=O)N[C@@H](Cc1ccccc1)C(=O)N[C@@H](Cc1ccc(N=[N+]=[N-])cc1)C(N)=O [BCH1778, H-Tyr-D-Ala-Phe-Phe(4-N3)—NH2] (H-Y[dA]F[Phe(4-N3)]-NH2)",,1.49,"IC50 (μ receptors; GPI(IC50), Table 1): 50 nM"
